Laboratory results from PubChem BioAssay AID652247 (Sanford-Burnham Center for Chemical Genomics, 2013).
Active and inactive are the calls of the source. The rule behind the calls is not given here.

Molecular target: NEDD8-conjugating enzyme Ubc12 (Homo sapiens) + NEDD8-activating enzyme E1 regulatory subunit (Homo sapiens) (UniProt P61081+Q13564)
Test: NEDD8 conjugation to CUL1 blockade – biochemical, TR-FRET, dose response (AID 652247)
Conditions: in vitro CUL1 neddylation

NEDD8-conjugating enzyme Ubc12 (Homo sapiens) + NEDD8-activating enzyme E1 regulatory subunit (Homo sapiens), sequence (P61081 whole entry, looked up): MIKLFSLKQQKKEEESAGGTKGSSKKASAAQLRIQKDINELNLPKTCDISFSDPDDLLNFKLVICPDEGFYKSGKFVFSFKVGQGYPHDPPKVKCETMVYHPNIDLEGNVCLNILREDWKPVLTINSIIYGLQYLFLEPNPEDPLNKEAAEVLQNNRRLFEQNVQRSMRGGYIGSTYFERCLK
NEDD8-conjugating enzyme Ubc12 (Homo sapiens) + NEDD8-activating enzyme E1 regulatory subunit (Homo sapiens), sequence (Q13564 whole entry, looked up): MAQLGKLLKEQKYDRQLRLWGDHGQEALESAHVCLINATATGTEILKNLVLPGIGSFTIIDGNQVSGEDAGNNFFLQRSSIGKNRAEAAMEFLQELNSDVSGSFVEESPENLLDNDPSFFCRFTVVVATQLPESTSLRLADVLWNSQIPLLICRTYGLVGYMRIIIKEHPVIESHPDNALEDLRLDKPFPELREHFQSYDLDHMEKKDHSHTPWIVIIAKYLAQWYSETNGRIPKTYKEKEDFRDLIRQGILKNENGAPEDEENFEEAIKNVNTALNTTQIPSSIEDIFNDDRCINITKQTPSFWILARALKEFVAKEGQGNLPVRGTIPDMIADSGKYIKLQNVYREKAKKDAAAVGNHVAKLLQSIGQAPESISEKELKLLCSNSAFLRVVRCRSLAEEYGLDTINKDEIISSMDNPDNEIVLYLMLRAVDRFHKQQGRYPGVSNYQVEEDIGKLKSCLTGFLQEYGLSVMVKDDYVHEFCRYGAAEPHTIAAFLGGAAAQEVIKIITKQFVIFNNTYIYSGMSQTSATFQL

| SMILES | IC50 |
| --- | --- |
| CC(=O)Nc1cc(-c2ccc(N3CCN(C)CC3)cc2)cn2c(-c3ccc(F)cc3)cnc12 | inactive |
| O=C(NCCc1ccc(Cl)cc1Cl)C1=CC=CN2CCS(=O)(=O)N=C12 | inactive |
| CC(=O)N1N=C2/C(=C/c3ccccc3)CCCC2C1c1ccccc1 (configuration not stated) | inactive |
| Cc1cc(C)n2nc(-c3cnn(C)c3C(F)(F)F)cc2n1 | inactive |
| COc1ccc(-c2cc(C(=O)N(C)CC(=O)Nc3ccccc3Cl)c3ccccc3n2)cc1OC | inactive |
| CCCCc1c(O)n2c(nc3ccccc32)[nH]c1=O | inactive |
| COCCNC(=O)c1ccc2c3n(nc2c1)-c1ccc(C)cc1CO3 | inactive |
| CCCN(CC(=O)Nc1ccccc1C)C(=O)c1ccc(-c2ccc(C(C)=O)cc2)o1 | 14.7 µM |
| CCN1CCN(C(=O)c2ccc3nc(-c4ccccc4)c(-c4ccccc4)nc3c2)CC1 | inactive |
| O=C(Nc1cc(C(=O)Nc2ccccc2C(=O)O)cc(C(=O)Nc2ccccc2C(=O)O)c1)c1ccccc1 | > 100 µM (inactive) |
| CSc1cnc2c(=O)n(C)c(=O)[nH]c2n1 | inactive |
| CN(C)c1ccc(-c2nc3cnccn3c2Nc2ccc3c(c2)OCCO3)cc1 | inactive |
| COCc1cc(C)nc(NC2CC(C)(C)NC(C)(C)C2)c1C#N | inactive |
| O=C(O)c1ccc2c(=O)n3c(nc2c1)/C(=C/c1ccc(C(F)(F)F)cc1)CC3 | inactive |
| O=C(O)c1cc(N2CCCCC2)nc2ccccc12 | inactive |
| COc1ccc2cc3cc(C(=O)NCCc4ccc(OC)c(OC)c4)oc3nc2c1 | 19.7 µM |
| O=C(O)Cn1c(=O)c(-c2ccccc2)nc2ccccc21 | inactive |
| COc1cc(-c2cc(C(=O)N3CCCCCC3)c3ccccc3n2)cc(OC)c1OC | inactive |
| O=C(O)CCc1ccc(-c2ccccc2)n1CC1CCCO1 (configuration not stated) | inactive |
| COc1ccc(-c2cn3cccnc3n2)cc1NC(=O)c1cccs1 | inactive |
| O=c1[nH]cnc2nc(-c3ccccc3)c(-c3ccccc3)nc12 | inactive |
| CCc1c(C)c2ccc(OC(C)C(=O)NC(Cc3c[nH]c4ccc(O)cc34)C(=O)O)c(C)c2oc1=O (configuration not stated) | inactive |
| CCOCCCn1c(=NC(=O)c2cccnc2)c(C(=O)OCC)cc2c(=O)n3ccccc3nc21 | inactive |
| CCOc1cc(/C=C/C(=O)Nc2ccc(C(=O)NCCN(CC)CC)cc2)ccc1OCC(C)C | inactive |
| CSc1ccc(/C=N/n2nnnc2N)cc1 | inactive |

| SMILES | IC50 |
| --- | --- |
| Cc1ccc(C)c(OCC(=O)N/N=C/c2ccc(N3CCOCC3)cc2)c1 | inactive |
| C(=C\c1ccc2nncn2c1)/c1ccccc1 | inactive |
| CC(C(=O)NCC1CCCO1)N(C(=O)c1snc(C(N)=O)c1N)c1cccc(F)c1 (configuration not stated) | inactive |
| COc1cc(F)ccc1-c1cc(C(=O)Nc2ccc(NC(C)=O)cc2)[nH]n1 | 19.4 µM |
| OC1CCCN(Cc2c3ccccc3cc3ccccc23)C1 (configuration not stated) | inactive |
| Cn1c(=O)c(-c2ccccc2)nc2ccccc21 | inactive |
| CN(C)c1ccc(/C=N/NC(=O)CCc2nc3ccccc3[nH]2)cc1 | inactive |
| Cc1ccc(-c2cc(-c3ccc(C)cc3)[n+](-c3ccc(C(=O)[O-])cc3)c(-c3ccc(C)cc3)c2)cc1 | inactive |
| COc1ccc(OCC(=O)N/N=C/c2ccc(N(C)C)cc2)cc1 | inactive |
| O=C(CCCc1c[nH]c2ccccc12)N1CCN(c2ccc(N3CCOCC3)nn2)CC1 | inactive |
| Cc1ccc(C(C(=O)NCC2CCCO2)N(C(=O)c2snc(C(N)=O)c2N)c2ccc(F)cc2)o1 (configuration not stated) | > 100 µM (inactive) |
| Oc1ccc(Br)cc1C=Nc1ccc2c3c(cccc13)CC2 | 12.1 µM |
| CCN(CC)c1ccc(/C=N/NC(=O)C2CC2)cc1 | inactive |
| CCN(CC)c1ccc(/C=N/NC(=O)CNC(=O)c2cccs2)cc1 | 14.9 µM |
| CCCCn1c(O)c(/C=N/NC(=O)c2ccncc2)c(=O)[nH]c1=S | inactive |
| Cc1cccn2c(=O)c3cc(C(=O)NC4CCCC4)sc3nc12 | 9.39 µM |
| COc1ccc(Cl)cc1NC(=O)Cn1nnc(C(=O)NCc2ccc3c(c2)OCO3)c1N | 10.4 µM |
| COC(=O)c1sc2nc3c(cc2c1N)COC(C)(C)C3 | inactive |
| Cc1cccn2c(=O)c3cc(C(=O)N4CCCCC4C)sc3nc12 (configuration not stated) | inactive |
| CC(=O)Nc1nc(C)c(-c2csc(Nc3ccc(S(N)(=O)=O)cc3)n2)s1 | 11.7 µM |
| COc1ccc2sc(-c3ccc(SC)cc3)c(C#CCO)c2c1 | inactive |
| Cc1ccc2nc(-c3ccc(NC(=O)COCC(=O)O)cc3)sc2c1 | > 100 µM (inactive) |
| CCn1c(=O)c(-c2ccccc2)c(O)c2ccccc21 | 17 µM |
| Cc1ccc2cc3cc(C(=O)NCCN4CCOCC4)oc3nc2c1 | 16.9 µM |
| CC1CCN(C(=O)CN2c3cccc4cccc(c34)S2(=O)=O)CC1 | inactive |

| SMILES | IC50 |
| --- | --- |
| Cc1ccc(-c2cc(C(=O)NCCCN3CCOCC3)c3ccccc3n2)cc1 | inactive |
| COC(=O)CSc1ccc2c(N)c(C(=O)OC)sc2c1 | inactive |
| CCC(=O)N/C(N)=N/c1nc(C)c2cc(OC)ccc2n1 | inactive |
| Nc1c2c(=O)oc(-c3ccccc3)cc2nn1-c1ccccc1 | inactive |
| Cc1ccc(-n2c3nc(=O)n(C)c(=O)c-3cc3ccccc32)cc1 | 17.9 µM |
| CS(=O)(=O)N(CC(=O)N/N=C/c1cccc2c1OCCO2)c1ccccc1Br | inactive |
| O=c1c[n+]([O-])c2ccccc2n1OCc1c(F)cccc1F | inactive |
| Cc1cccc(C)c1NC(=O)C(C1CC1)n1c(=O)c(-c2ccccc2)nc2ccccc21 (configuration not stated) | inactive |
| c1cn2c(-c3ccoc3)cncc2n1 | inactive |
| CCCc1c(O)c2ccccc2[nH]c1=O | inactive |
| COc1ccc(-c2cc(=O)c3cc(O)ccc3o2)cc1 | inactive |
| COCCCNC(=O)/C(C#N)=C/c1c(N2CCN(c3ccccc3)CC2)nc2ccccn2c1=O | inactive |
| Nc1nnc(-c2cc3ccccc3oc2=O)s1 | > 100 µM (inactive) |
| COc1cc2c(cc1OC)-c1cc(NCc3ccccn3)nc(=O)n1CC2 | inactive |
| COC(=O)c1ccc(C(=O)OC)c(=O)[nH]1 | inactive |
| COC(=O)c1ccc2[nH]c3c(c2c1)CC(C)CC3 (configuration not stated) | inactive |
| CCN(CC)CCNC(=O)Cn1c(-c2ccccn2)nc2ccccc21 | inactive |
| CCc1ccc(-c2cnc3nc[nH]c(=O)c3n2)cc1 | 14.4 µM |
| c1ccc(C[n+]2cccc3c4ccccc4ccc32)cc1 | 9.52 µM |
| O=C(CCc1ccccc1)Nc1nnc(-c2ccccn2)o1 | inactive |
| Cc1c(Cc2ccccc2)c(=O)oc2c(C)c(OCc3nn[nH]n3)ccc12 | > 100 µM (inactive) |
| COC(=O)C1=C(C)NC2=C(C(=O)C(C(=O)OC)C(c3ccc(OC)cc3)C2)C1c1ccccn1 (configuration not stated) | inactive |
| C=CCNC(=S)N/N=C/c1ccc(N(CC)Cc2ccccc2)cc1 | inactive |
| CCOC(=O)CNC(=O)c1sc(NC(=O)c2ccccc2F)nc1C | inactive |
| CC(NC(=O)C1=CC=CN2CCS(=O)(=O)N=C12)c1ccc(Cl)c(Cl)c1 (configuration not stated) | inactive |

| SMILES | IC50 |
| --- | --- |
| NC(=O)C1CCN(C(=O)c2ccc3nc(-c4ccccc4)c(-c4ccccc4)nc3c2)CC1 | inactive |
| CN(C)CCNc1nc(-c2ccco2)c2c(c1C#N)CC(C)(C)OC2 | inactive |
| COCCN(C(=O)COC(=O)c1cc2ccccc2cc1OC)c1c(N)n(Cc2ccccc2)c(=O)[nH]c1=O | inactive |
| COCCNc1c2c(c(C#N)c3nc4ccccc4n13)CCCC2 | inactive |
| CN1CCOc2c1cnn(CCO)c2=O | inactive |
| Cc1cc(=O)oc2cc(NC(=O)CN3C(=O)NC(C)(c4ccccc4)C3=O)ccc12 (configuration not stated) | inactive |
| O=C(N/N=C/c1ccc2cccnc2c1)c1nc2ccccc2c(=O)[nH]1 | > 100 µM (inactive) |
| Cc1cc(NS(=O)(=O)c2ccc(NC(=O)c3cc4c(=O)n5ccccc5nc4s3)cc2)nc(C)n1 | 18 µM |
| CCOc1ccc2[nH]c(C(=O)N/N=C/c3cccc(OC)c3OC)cc2c1 | inactive |
| O=C(O)c1ccc(/C=N/NC(=O)c2ccc(CN3c4cccc5cccc(c45)S3(=O)=O)cc2)cc1 | inactive |
| S=c1[nH]c2nc(Cl)c(Cl)nc2[nH]1 | inactive |
| Nc1cccc2c(=O)[nH][nH]c(=O)c12 | inactive |
| O=C(NC1CCCCC1)C(c1ccncc1)n1c(=O)c(-c2ccccc2)nc2ccccc21 (configuration not stated) | inactive |
| COc1ccc(-c2cc3ccc(OCc4nn[nH]n4)cc3oc2=O)cc1OC | 6.88 µM |
| COc1ccc(CC(=O)N/N=C\c2cc(Br)c(O)c(Br)c2)cc1 | inactive |
| COc1cc(C=NNC(=O)c2ccc(NS(=O)(=O)c3cccs3)cc2)cc(Br)c1O | inactive |
| c1cnc2cc(-c3ccsc3)ncc2c1 | inactive |
| CN(C)CCn1c(SCc2ccccc2C#N)nc2c(sc3ccccc32)c1=O | inactive |
| C=CCNC(=O)c1ccc2c3n(nc2c1)-c1ccc(C)cc1CO3 | inactive |
| COC(=O)c1ccc(/C=C2\CCn3c2nc2cc(C(=O)O)ccc2c3=O)cc1 | inactive |
| Cc1csc(NC(=O)c2cc(=O)[nH]c3ccc(S(=O)(=O)N4CCOCC4)cc23)n1 | inactive |
| CN=Cc1c(NC)nc2c(C)cccn2c1=O | inactive |
